Results: US20170260285A1, “METHODS FOR TREATING CANCER” (UNIVERSITY OF IOWA RESEARCH FOUNDATION, priority 2014, published 2017)
Entries after “also recorded” stand apart in the source; their conditions may differ. Where two headings read alike, the source gives them in different places. Residues, ends and D or L forms follow the SMILES beside them. *: point of attachment. Cbz = O=C(OCc1ccccc1)*; CH2F = FC*

Tests used:
[1] = system: genes related to inflammation and innate immunity; conditions: one other study (ref. 25); cited from earlier work
SQ20B HNSCC cells [2] = assay: IL-1α release by ELISA in SQ20B cells; type: cell-based, human; conditions: for baseline IL-1α levels: agent 1 h then DMSO 48 h; for erlotinib-induced IL-1α release: agent 1 h then erlotinib 5 μM 48 h; for IL-1α after erlotinib treatment over time: erlotinib 5 μM, indicated time points, ELISA
Method: (§1) Erlotinib (ERL; Tarceva) and anakinra (ANA; Kineret) were obtained from the inpatient pharmacy at the University of Iowa Hospitals and Clinics. Drugs were added to cells at final concentrations of 5 μM ERL and 10 ng/mL or 50 ng/mL ANA. Human IgG and […] (DMSO) were used as controls and were obtained from Sigma Aldrich. Human IL-1α, IL-1β, and IL-18Rα neutralizing antibodies were obtained from R&D Systems and were used at a concentration of 0.5 μg/mL. Recombinant human IL-1α was obtained from Life Technologies and administered at a concentration of 1 ng/mL. Ac-Y-VAD-cho, a caspase-1 inhibitor (CalBioChem), was suspended in DMSO and added at a concentration of […], a pan-caspase inhibitor (Promega) was diluted in DMSO and added at a concentration of 20 μM. TLR agonists were used at the following concentrations: Pam3CSK4 (200ng/mL), FSL-1 (100 ng/mL), Poly I:C (20 μg/mL), LPS (200 ng/mL), Flagellin (200 ng/mL), Gardiquimod (1 μg/mL), CL075 (1 μg/mL), and E. coli DNA (1 μg/mL). All TLR agonists were obtained from InvivoGen. The required volume of each drug was added directly to complete cell culture media on cells to achieve the indicated final concentrations.
(§2) Levels of IL-6, IL-1α and IL-1β of treated cells were determined by ELISA. The culture media of the treated cells were harvested and each cytokine was detected according to the manufacturer's protocol using the Human Quantikine ELISA Kits (R&D Systems, Minneapolis, Minn.).
(§3) Erlotinib (ERL; Tarceva), anakinra (ANA; Kineret) and N-acetyl cysteine (NAC; Acetadote) were obtained from the inpatient pharmacy at the University of Iowa Hospitals and Clinics. Drugs were added to cells at final concentrations of 5 μM ERL, 10 ng/mL or 50 ng/mL ANA and 20 mM NAC. Human IgG and […] (DMSO) were used as controls and were obtained from Sigma Aldrich. Pegylated catalase (CAT; Sigma Aldrich) was used at a final concentration of 100 U/mL. Human IL-1α, IL-1β, and IL-18Ra neutralizing antibodies were obtained from R&D Systems and were used at a concentration of 0.5 μg/mL. Recombinant human IL-1α was obtained from Life Technologies and administered at a concentration of 1 ng/mL. Ac-Y-VAD-cho (CalBioChem) was suspended in DMSO and used at 5 μM. Z-VAD-fmk (Promega) was diluted in DMSO and used at 20 μM. TLR agonists were used at the following concentrations: Pam3CSK4 (200 ng/mL), FSL-1 (100 ng/mL), Poly I:C (20 μg/mL), LPS (200 ng/mL), Flagellin (200 ng/mL), Gardiquimod (1 μg/mL), CL075 (1 μg/mL), and E. coli DNA (1 μg/mL). All TLR agonists were obtained from InvivoGen. The required volume of each drug was added directly to complete cell culture media on cells to achieve the indicated final concentrations.
(§4) Levels of IL-6, IL-1α and IL-1β of treated cells were determined by ELISA. The culture media of the treated cells were harvested and each cytokine was detected according to the manufacturer's protocol using Human Quantikine ELISA Kits (R&D Systems, Minneapolis, Minn.).

Cal-27 HNSCC cells [3] = assay: IL-1α release by ELISA in Cal-27 cells; type: cell-based, human; conditions: for baseline IL-1α levels: agent 1 h then DMSO 48 h; for erlotinib-induced IL-1α release: agent 1 h then erlotinib 5 μM 48 h; for IL-1α after erlotinib treatment over time: erlotinib 5 μM, indicated time points, ELISA
Method: as §1, §2, §3, §4

SQ20B cells [4] = assay: Clonogenic survival assay; type: cell-based, human; conditions: Z-VAD 20 μM with erlotinib
Method: Clonogenic survival was determined as previously described (17). Individual assays were performed with multiple dilutions with at least four cloning dishes per data point, repeated in at least 3 separate experiments. Tumor cell implantation: Female 4-5 week old athymic-nu/nu nude mice were purchased from Harlan Laboratories (Indianapolis, IN). Mice were housed in a pathogen-free barrier room in the Animal Care Facility at the University of Iowa and handled using aseptic procedures. All procedures were approved by the IACUC committee of the University of Iowa and conformed to the guidelines established by the NIH. Mice were allowed at least 3 days to acclimate prior to beginning experimentation, and food and water were made freely available. Tumor cells (shCON or shMyD88) were inoculated into nude mice by subcutaneous injection of 0.1 mL aliquots of saline containing 2×10^6 FaDu cells into the right flank using 26-gauge needles.
Clonogenic survival was determined as previously described (22). Individual assays were performed with multiple dilutions with at least four cloning dishes per data point, repeated in at least 3 separate experiments.

SQ20B and Cal27 cells = type: cell-based
Method: To determine whether cell death is responsible for IL-1α release, we used Z-VAD-fmk, a pan-caspase inhibitor, to prevent cell death. We also tested Ac-Y-VAD-cho, caspase-1 inhibitor, to assess inflammasome involvement. After testing various combinations of these inhibitors, we found an optimal concentration of 20 μM Z-VAD and 5μM Y-VAD. […] To confirm that the pan-caspase inhibitor was effectively blocking cell death, we performed a clonogenic assay with erlotinib- and Z-VAD-treated cells in SQ20B cells.

SQ20B HNSCC cells [5] = assay: IL-6 secretion by ELISA in SQ20B cells; type: cell-based, human; conditions: erlotinib 5 μM, 48 h vs DMSO, ELISA
Text: (§5) Cal-27 and FaDu human head and neck squamous carcinoma (HNSCC) cells were obtained from the American Type Culture Collection (ATCC, Manassas, Va.). SQ20B HNSCC cells (16) were a gift from Dr. Anjali Gupta (Department of Radiation Oncology, The University of Iowa). All HNSCC cell lines are EGFR positive and are sensitive to EGFR inhibitors. All cell lines were authenticated by the ATCC for viability (before freezing and after thawing), growth, morphology and isoenzymology. Cells were stored according to the supplier's instructions and used over a course of no more than 3 months after resuscitation of frozen aliquots. Cultures were maintained in 5% CO2 and air humidified in a 37° C. incubator.
as §1, §2
as §5, with “(20)” for “(16)”
as §3, with “The required volume of each drug was added directly to complete cell culture media on cells to achieve the indicated final concentrations.” left out

Cal-27 HNSCC cells [6] = assay: IL-6 secretion by ELISA in Cal-27 cells; type: cell-based, human; conditions: erlotinib 5 μM, 48 h vs DMSO, ELISA
Text: as §5, §1, §2
as §5, with “(20)” for “(16)”
as §3, with “The required volume of each drug was added directly to complete cell culture media on cells to achieve the indicated final concentrations.” left out

[7] = system: SQ20B and Cal-27 HNSCC cells; assay: IL-1β secretion by ELISA after erlotinib; type: cell-based, human; conditions: erlotinib 5 μM, any time point
Method: as §1, with “TLR agonists were used at the following concentrations: Pam3CSK4 (200ng/mL), FSL-1 (100 ng/mL), Poly I:C (20 μg/mL), LPS (200 ng/mL), Flagellin (200 ng/mL), Gardiquimod (1 μg/mL), CL075 (1 μg/mL), and E. coli DNA (1 μg/mL). All TLR agonists were obtained from InvivoGen. The required volume of each drug was added directly to complete cell culture media on cells to achieve the indicated final concentrations.” left out
Levels of IL-6, IL-1α and IL-1β of treated cells were determined by ELISA. The culture media of the treated cells were harvested and each cytokine was detected according to the manufacturer's protocol using the Human Quantikine ELISA Kits (R&D Systems, Minneapolis, Minn.). […]
as §4

SQ20B xenograft tumors = assay: HNSCC xenograft tumor growth in nude mice; type: in vivo, athymic nu/nu mice
Text: Male and female athymic-nu/nu mice (4-5 weeks old) were purchased from Harlan Laboratories (Indianapolis, Ind.). Mice were housed in a pathogen-free barrier room in the Animal Care Facility at the University of Iowa and handled using aseptic procedures. All procedures were approved by the IACUC committee of the University of Iowa and conformed to the guidelines established by the NIH. Mice were allowed at least 3 days to acclimate prior to beginning experimentation, and food and water were made freely available. Tumor cells were inoculated into nude mice by subcutaneous injection of 0.1 mL aliquots of saline containing 2×10^6 SQ20B cells into the right flank using 26-gauge needles.
Mice started drug treatment 1 week after tumor inoculation. For the MyD88 knockdown experiments, female mice were randomized into 2 treatment groups and orally administered either water or 12.5 mg/kg erlotinib (ERL) daily. For the IL-1α neutralization experiments, male and female mice were randomized into 4 treatment groups as follows. Control group: Mice were administered water orally daily and 1 mg/kg IgG i.p once per week. […] Mice were evaluated daily and tumor measurements taken three times per week using Vernier calipers. Tumor volumes were calculated using the formula: tumor volume=(length×width^2)/2 where the length was the longest dimension, and width was the dimension perpendicular to length. […]

SQ20B cells [8] = assay: TLR gene expression by RTPCR in SQ20B cells; type: cell-based, human
Method: (§6) Total RNA was extracted from cells after indicated time points using RNeasy.Plus mini kit (Qiagen). Conversion of RNA into cDNA was accomplished with the iScript cDNA synthesis kit (Bio-Rad) and a thermocycler with the following conditions: 5 minutes at 25° C., 30 minutes at 42° C., and 5 minutes at 85° C. Subsequent RTPCR analysis was performed in a 96-well optical plate with each well containing 6 μL of cDNA, 7.5 μL of SyBr Green Universal SuperMix (Bio-Rad), and 1.5 μof oligonucleotide primers (sense and antisense; 4 μM) for a total reaction volume of 15 μL. Oligonucleotide primers for human genes were obtained from IDT (Iowa City, Iowa). RTPCR was performed on ABI PRISM Sequence Detection System (model 7000, Applied Biosystems) with the following protocol: 95° C. for 15 seconds (denaturing) and 60° C. for 60 seconds (annealing), repeated for 40 cycles. Threshold cycle (CT) values for analyzed genes (in duplicate) were normalized as compared to GAPDH (cell lines) or 18S (human samples) CT values. Relative abundance was calculated as 0.5̂(ΔCT), with OCT being the CT value of the analyzed gene minus the CT value of the reference gene (GAPDH or 18S).

Cal-27 cells = assay: TLR gene expression by RTPCR in Cal-27 cells; type: cell-based, human
Method: as §6

HNSCC tumor cell lines = conditions: previous studies (ref. 10), cited from earlier work
[9] = listed as pan-caspase inhibitor
[10] = ERL 5 μM 48 h, absolute levels very low

SMILES: COc1cc2ncnc(Nc3cccc(Br)c3)c2cc1OC [PD153035]
- genes related to inflammation and innate immunity [1]: upregulated

SMILES: COC(=O)C[C@H](NC(=O)[C@H](C)NC(=O)[C@@H](NC(=O)OCc1ccccc1)C(C)C)C(=O)CF [Z-VAD-fmk] (Cbz-Val-Ala-Asp(OMe)-CH2F)
- baseline IL-1α levels (SQ20B HNSCC cells [2]): significantly reduced
- baseline IL-1α levels (SQ20B HNSCC cells [2]; listed as Z-VAD): significantly reduce
- erlotinib-induced IL-1α release (SQ20B HNSCC cells [2]): significantly reduced
- erlotinib-induced IL-1α release (SQ20B HNSCC cells [2]; listed as Z-VAD): significantly reduce
- erlotinib-induced IL-1α release (SQ20B HNSCC cells [2]; listed as ZVAD): blocked
- erlotinib-induced IL-1α release (SQ20B HNSCC cells [2]; [9]): blocked
- baseline IL-1α levels (Cal-27 HNSCC cells [3]): significantly reduced
- baseline IL-1α levels (Cal-27 HNSCC cells [3]; listed as Z-VAD): significantly reduce
- erlotinib-induced IL-1α release (Cal-27 HNSCC cells [3]): significantly reduced
- erlotinib-induced IL-1α release (Cal-27 HNSCC cells [3]; listed as Z-VAD): significantly reduce
- erlotinib-induced IL-1α release (Cal-27 HNSCC cells [3]; listed as ZVAD): blocked
- erlotinib-induced IL-1α release (Cal-27 HNSCC cells [3]; [9]): blocked
- erlotinib-induced cell death (SQ20B cells [4]): blocked
- erlotinib-induced cell death (SQ20B cells [4]; listed as Z-VAD): significantly blocked
- erlotinib-induced cell death (SQ20B cells [4]; listed as ZVAD): blocked
- erlotinib-induced cell death (SQ20B cells [4]; [9]): blocked
- highest dose that did not result in toxicity (optimal concentration) (SQ20B and Cal27 cells): 20 µM

SMILES: C#Cc1cccc(Nc2ncnc3cc(OCCOC)c(OCCOC)cc23)c1 [erlotinib, Erlotinib]
- IL-6 production/secretion with erlotinib (SQ20B HNSCC cells [5]): increases IL-6 production
- IL-6 production/secretion with erlotinib (Cal-27 HNSCC cells [6]): increases IL-6 production
- IL-1α after erlotinib treatment over time (SQ20B HNSCC cells [2]): steadily increased across all time points
- IL-1α after erlotinib treatment over time (SQ20B HNSCC cells [2]; listed as ERL): increased across all time points
- IL-1α after erlotinib treatment over time (Cal-27 HNSCC cells [3]): steadily increased across all time points
- IL-1α after erlotinib treatment over time (Cal-27 HNSCC cells [3]; listed as ERL): increased across all time points
- secreted IL-1β after erlotinib treatment [7]: undetectable; also recorded: unable to detect
- secreted IL-1β after erlotinib treatment ([7]; listed as ERL): not IL-1β was detectable
- anti-tumor activity in vivo with IL-1α blockade (SQ20B xenograft tumors; EGFRI combined with IL-1α blockade (neutralizing IL-1α antibody)): significantly increased
- tumor growth of MyD88-deficient xenografts treated with erlotinib (SQ20B xenograft tumors; shMyD88 #2 and #9 vs erlotinib-treated control xenografts, 12.5 mg/kg orally daily, three weeks): reduced tumor growth
- TLR8 expression (SQ20B cells [8]; [10]): increased
- TLR mRNA expression (SQ20B cells [8]; erlotinib): did not affect
- TLR10 expression (Cal-27 cells; [10]): increased
- TLR mRNA expression (Cal-27 cells; erlotinib): did not affect
- IL-6 expression/secretion in HNSCC cell lines treated with EGFRIs (HNSCC tumor cell lines): significant upregulation
- IL-6 expression/secretion in HNSCC cell lines treated with EGFRIs (HNSCC tumor cell lines; listed as ERL): induces the secretion of IL-6
